Measured values taken from US10307587B2, “Methods and devices for treating the skin” (VOMARIS INNOVATIONS, INC., priority 2014, dated 2019).

What was measured:
HUVEC cells [1] = assay: EF-induced reorientation of endothelial cells (orientation index Oi); type: cell-based, human; conditions: for orientation response / reorientation of cells in an EF: drug 50 μM, 1 hour before and during EF exposure
Procedure: HUVEC cells were seeded in a trough formed by two parallel (1 cm apart) strips of glass coverslip (No. 1, length of 22 mm) fixed to the base of the dish with silicone grease. Scratch lines were made perpendicular to the long axis of the chamber with a fine sterile needle and used as reference marks for directed cell migration. Cells were incubated for 24-48 hours (37° C., 5% CO2) before a roof coverslip was applied and sealed with silicone grease. The final dimensions of the chamber, through which current was passed, were 22×10×0.2 mm. Agar-salt bridges not less than 15 cm long were used to connect silver/silver-chloride electrodes in beakers of Steinberg's solution (58 mM NaCl, 0.67 mM KCl, 0.44 mM Ca(NO3)2, 1.3 mM MgSO4, 4.6 mM Trizma base, pH 7.8-8.0), to pools of excess culture medium at either side of the chamber. Field strengths were measured directly at the beginning of, the end of and during each experiment. No fluctuations in field strength were observed. […] (50 μM), the Rho kinase inhibitor Y27632 (50 μM), both Akt and Rho kinase inhibitors (10 μM each) or latrunculin (50 nM) for 1 hour before EF stimulation. The same concentration of drug was present during EF exposure in a CO2 incubator.
A series of images was taken with an image analyser immediately before EF exposure and at 4, 8 and 24 hours of EF exposure. Cell orientation was quantified as an orientation index (Oi), which is defined as Oi=cos 2(α), where α is the angle formed by the long axis of a cell with a line drawn perpendicular to the field lines. A cell with its long axis parallel to the vector of the EF will have an Oi of −1, and a cell with its long axis exactly perpendicular to the EF vector will have an Oi of +1. […] The significance of this two-dimensional orientation distribution against randomness was calculated using Rayleigh's distribution. A long:short axis ratio was calculated for assessment of elongation.
Cell alignment was quantified using an orientation index Oi=cos 2(α), where α is the angle formed between the long axis of a cell and a line drawn perpendicular to the field lines. […]

HUVEC cells [2] = assay: EF-induced elongation of endothelial cells (long:short axis ratio); type: cell-based, human; conditions: drug 50 μM
Procedure: HUVEC cells were seeded in a trough formed by two parallel (1 cm apart) strips of glass coverslip (No. 1, length of 22 mm) fixed to the base of the dish with silicone grease. Scratch lines were made perpendicular to the long axis of the chamber with a fine sterile needle and used as reference marks for directed cell migration. Cells were incubated for 24-48 hours (37° C., 5% CO2) before a roof coverslip was applied and sealed with silicone grease. The final dimensions of the chamber, through which current was passed, were 22×10×0.2 mm. […] Field strengths were measured directly at the beginning of, the end of and during each experiment. […]
A series of images was taken with an image analyser immediately before EF exposure and at 4, 8 and 24 hours of EF exposure. Cell orientation was quantified as an orientation index (Oi), which is defined as Oi=cos 2(α), where α is the angle formed by the long axis of a cell with a line drawn perpendicular to the field lines. […] The significance of this two-dimensional orientation distribution against randomness was calculated using Rayleigh's distribution. A long:short axis ratio was calculated for assessment of elongation.
HUVEC cells elongated dramatically in an EF. […] We quantified the elongation of the cells using a long:short axis ratio. […]

Human keratinocytes = assay: in vitro scratch assay (cell migration); type: cell-based; conditions: for increased keratinocyte migration observed with LLEC, under N-acetyl cysteine: 5 mM, pretreated 1 h before scratch assay
Text: The in vitro scratch assay is an easy, low-cost and well-developed method to measure cell migration in vitro. The basic steps involve creating a “scratch” in a cell monolayer, capturing images at the beginning and at regular intervals during cell migration to close the scratch, and comparing the images to quantify the migration rate of the cells. Compared to other methods, the in vitro scratch assay is particularly suitable for studies on the effects of cell-matrix and cell-cell interactions on cell migration, mimic cell migration during wound healing in vivo and are compatible with imaging of live cells during migration to monitor intracellular events if desired. In addition to monitoring migration of homogenous cell populations, this method has also been adopted to measure migration of individual cells in the leading edge of the scratch. Not taking into account the time for transfection of cells, in vitro scratch assay per se usually takes from several hours to overnight.
Human keratinocytes were plated under plated under placebo or a LLEC system (labeled “PROCELLERA®”). Cells were also plated under silver-only or zinc-only dressings. After 24 hours, the scratch assay was performed.
Measurement of the potential difference between adjacent zinc and silver dots when the LLEC is in contact with de-ionized water yielded a value of about 0.2 Volts. Though the potential difference between zinc and silver dots can be measured, non-intrusive measurement of the electric field arising from contact between the LLEC and liquid medium was difficult. Keratinocyte migration was accelerated by exposure to an Ag/Zn LLEC.
Scratch assay—A cell migration assay was performed using culture inserts (IBIDI®, Verona, Wis.) according to the manufacturers instructions. Cell migration was measured using time-lapse phase-contrast microscopy following withdrawal of the insert. Images were analyzed using the AxioVision Rel 4.8 software.
N-Acetyl Cysteine Treatment—Cells were pretreated with 5 mM of the thiol antioxidant N-acetylcysteine (Sigma) for 1 h before start of the scratch assay. […]

Row | Compound | orientation response / reorientation of cells in an EF (HUVEC cells [1]) | long:short axis ratio in EF-treated cells (HUVEC cells [2]) | also measured
1 | 1-L-6-hydroxymethyl-chiro-inositol 2-[(R)-2-O-methyl-3-O-octadecylcarbonate] [Akt inhibitor] | significantly decreased | significantly decreased | –
2 | COc1cc([C@@H]2c3cc4c(cc3[C@H](O)[C@H]3COC(=O)[C@@H]23)OCO4)cc(OC)c1OC [IGF-1R inhibitor, picropodophyllin] | – | – | increased keratinocyte migration observed with LLEC, under IGF-1R inhibitor (Human keratinocytes; 50 nM picropodophyllin just prior to scratch assay): attenuated the increased keratinocyte migration
3 | CC(=O)N[C@@H](CS)C(=O)O [N-Acetyl Cysteine, N-acetylcysteine] | – | – | increased keratinocyte migration observed with LLEC, under N-acetyl cysteine (Human keratinocytes): failed to reproduce the increased migration; increased keratinocyte migration observed with LLEC, under N-acetyl cysteine (Human keratinocytes; listed as N-acetyl cysteine): prevented
4 | N#CC(=C(/N)Sc1ccccc1N)/C(C#N)=C(\N)Sc1ccccc1N [U0126] | – | – | Oi (HUVEC cells [1]): 0.33±0.03
5 | COc1cc2ncnc(Nc3ccc(Cl)cc3F)c2cc1OC [VEGFR inhibitor, 4-[(4′-chloro-2′-fluoro)phenylamino]-6,7-dimethoxyquinazoline] | completely abolished | – | –
6 | C[C@@H](N)[C@H]1CC[C@H](C(=O)Nc2ccncc2)CC1 [Y27632] | – | significantly decreased | –
